Reference: patent publication US7790724B2, “c-fms kinase inhibitors” (Janssen Pharmaceutica N.V., priority 2003, dated 2010)
Counter-ions that a name gives are not always drawn. Like-named read-outs stand apart in the source and are kept apart here.

Biological target: T1, c-fms (Homo sapiens, UniProt P07333)
T1 construct: 3DP
Test: autophosphorylation, fluorescence polarization competition immunoassay for c-fms inhibition
Format: biochemical
Conditions: for inhibition at 10 µM: read-out: % Inhibition (at 10 μM); for inhibition at 2 µM: @ 2 μM compound (values marked *)
Method: The assay was performed in black 96-well microplates (LJL BioSystems). The assay buffer used was 100 mM HEPES, pH 7.5, 1 mM DTT, 0.01% (v/v) Tween-20. Compounds were diluted in assay buffer containing 4% DMSO just prior to the assay. […] The kinase reaction was initiated by adding 2 μL of 5 mM ATP (Sigma) in assay buffer. The final concentrations in the assay were 10 nM c-fms, 1 mM ATP, 5 mM MgCl2, 2% DMSO. Control reactions were ran in each plate: in positive and negative control wells, assay buffer (made 4% in DMSO) was substituted for the compound; in addition, positive control wells received 1.2 μL of 50 mM EDTA.
The plates were incubated at room temperature for 45 min. At the end of the incubation, the reaction was quenched with 1.2 μL of 50 mM EDTA (EDTA was not added to the positive control wells at this point; see above). Following a 5-min incubation, each well received 10 μL of a 1:1:3 mixture of anti-phosphotyrosine antibody, 10×, PTK green tracer, 10× (vortexed), FP dilution buffer, respectively (all from PanVera, cat. # P2837). The plate was covered, incubated for 30 min at room temperature and the fluorescence polarization was read on the Analyst. […] The reported IC50 values are averages of three independent measurements.

[1] = 10 nM c-fms, 1 mM ATP, averages of three independent measurements, read-out: IC50
[2] = determined in a similar fashion for Examples 11-68, read-out: IC-50 (activites below 1 μM)

T1 sequence (P07333 20-972): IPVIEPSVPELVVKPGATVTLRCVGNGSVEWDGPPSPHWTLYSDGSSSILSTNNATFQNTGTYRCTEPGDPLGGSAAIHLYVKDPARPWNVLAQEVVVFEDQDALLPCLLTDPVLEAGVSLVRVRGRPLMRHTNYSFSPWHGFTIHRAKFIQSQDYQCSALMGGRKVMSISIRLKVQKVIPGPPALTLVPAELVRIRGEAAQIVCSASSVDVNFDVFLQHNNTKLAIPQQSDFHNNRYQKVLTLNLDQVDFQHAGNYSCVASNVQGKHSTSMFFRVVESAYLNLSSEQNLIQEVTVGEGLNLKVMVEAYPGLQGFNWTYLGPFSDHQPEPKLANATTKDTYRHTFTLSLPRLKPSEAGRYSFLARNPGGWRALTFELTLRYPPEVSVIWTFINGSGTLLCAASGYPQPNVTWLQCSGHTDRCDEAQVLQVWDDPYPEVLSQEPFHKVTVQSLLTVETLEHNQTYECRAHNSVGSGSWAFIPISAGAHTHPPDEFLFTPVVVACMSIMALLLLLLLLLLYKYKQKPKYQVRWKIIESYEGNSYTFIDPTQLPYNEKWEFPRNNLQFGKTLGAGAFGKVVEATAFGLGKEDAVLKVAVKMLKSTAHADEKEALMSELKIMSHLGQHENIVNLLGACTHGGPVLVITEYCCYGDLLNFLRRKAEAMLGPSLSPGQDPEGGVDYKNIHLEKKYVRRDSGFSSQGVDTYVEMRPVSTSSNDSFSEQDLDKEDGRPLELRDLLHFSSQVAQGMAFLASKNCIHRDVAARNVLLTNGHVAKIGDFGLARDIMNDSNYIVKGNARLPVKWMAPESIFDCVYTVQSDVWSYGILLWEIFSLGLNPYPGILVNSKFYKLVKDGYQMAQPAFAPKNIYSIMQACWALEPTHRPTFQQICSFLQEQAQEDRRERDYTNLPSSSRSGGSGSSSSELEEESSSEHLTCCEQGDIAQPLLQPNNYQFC

Row | SMILES | IC50 [1] [nM] | inhibition at 10 µM (at 10 μM compound) [%] | other results
1 | O=C(Nc1ccccc1N1CCCCC1)c1cc([N+](=O)[O-])c[nH]1 | < 1000 | 99 | –
2 | O=C(Nc1cc(CO)ccc1N1CCCCC1)c1ccc([N+](=O)[O-])o1 | < 1000 | 100 | –
3 | N#Cc1ccc(C(=O)Nc2c(F)cccc2N2CCCCC2)o1 | > 1000 | 61 | –
4 | CC1CCN(c2ccccc2NC(=O)c2ccc([N+](=O)[O-])o2)CC1 | – | – | IC50: < 1000 nM; inhibition at 10 µM: 92%
5 | O=C(Nc1ccccc1N1CCCCCC1)c1ccc([N+](=O)[O-])o1 | < 1000 | 100 | –
6 | O=C(Nc1ccccc1N1CCCCC1)c1ccc([N+](=O)[O-])o1 | – | 91 | –
7 | COc1ccc(N2CCCCC2)c(NC(=O)c2ccc(C#N)o2)c1 | < 1000 | – | inhibition at 2 µM: 99%
8 | CC1CCCN(c2ccccc2NC(=O)c2ccc([N+](=O)[O-])o2)C1 (stereo not drawn) | < 1000 | 96 | –
9 | O=C(Nc1ccccc1N1CCCCC1)c1cc([N+](=O)[O-])ccn1 | > 1000 | 90 | –
10 | C[C@H]1CN(c2ccccc2NC(=O)c2ccc([N+](=O)[O-])o2)C[C@H](C)O1 | > 1000 | 80 | –
11 | O=C(Nc1ccccc1N1CCCCC1)c1cccc([N+](=O)[O-])c1 | > 1000 | 77 | –
12 | CC(=O)c1ccc(C(=O)Nc2ccccc2N2CCCCC2)s1 | > 1000 | 60 | –
13 | C[C@@H]1CN(c2ccccc2NC(=O)c2ccc([N+](=O)[O-])o2)C[C@H](C)O1 | > 1000 | 72 | –
14 | O=C(Nc1ccccc1N1CCCCC1)c1n[nH]cc1[N+](=O)[O-] | > 1000 | 61 | –
15 | CCOc1ccccc1NC(=O)c1ccc([N+](=O)[O-])o1 | > 1000 | 56 | –
16 | O=C(Nc1cc(F)ccc1N1CCCCC1)c1ccc([N+](=O)[O-])o1 | < 1000 | – | –
17 | CS(=O)(=O)NCc1ccc(N2CCCCC2)c(NC(=O)c2ccc(C#N)o2)c1 | < 1000 | – | inhibition at 2 µM: 100%
18 | N#Cc1ccc(C(=O)Nc2cc(CNCC(O)CO)ccc2N2CCCCC2)o1 (stereo not drawn) | < 1000 | – | inhibition at 2 µM: 93%
19 | N#Cc1ccc(N2CCCCC2)c(NC(=O)c2ccc(C#N)o2)c1 | < 1000 | – | inhibition at 2 µM: 95%
20 | O=C(Nc1ccccc1N1CCCCC1)c1cc([N+](=O)[O-])n[nH]1 | > 1000 | – | inhibition at 2 µM: 50%
21 | CC(C)(O)c1ccc(NC(=O)c2nc(C#N)c[nH]2)c(C2=CCCCC2)c1 [Example 12, 4-Cyano-1H-imidazole-2-carboxylic acid [2-cyclohex-1-enyl-4-(1-hydroxy-1-methyl-ethyl)-phenyl]-amide] | – | – | IC50 [2]: < 1000 nM
22 | COC(C)(C)c1ccc(NC(=O)c2nc(C#N)c[nH]2)c(C2=CCCCC2)c1 [Example 13, 4-Cyano-1H-imidazole-2-carboxylic acid [2-cyclohex-1-enyl-4-(1-methoxy-1-methyl-ethyl)-phenyl]-amide] | – | – | IC50 [2]: < 1000 nM
23 | CC(C)(N)c1ccc(NC(=O)c2nc(C#N)c[nH]2)c(C2=CCCCC2)c1 [Example 14, 4-Cyano-1H-imidazole-2-carboxylic acid [4-(1-amino-1-methyl-ethyl)-2-cyclohex-1-enyl-phenyl]-amide, acetic acid salt] | – | – | IC50 [2]: < 1000 nM
24 | CC(C)c1ccc(NC(=O)c2nc(C#N)c[nH]2)c(C2=CCCCC2)c1 [Example 22, 4-Cyano-1H-imidazole-2-carboxylic acid (2-cyclohex-1-enyl-4-isopropyl-phenyl)-amide] | – | – | IC50 [2]: < 1000 nM
25 | CC1CCN(c2ccccc2NC(=O)c2nc(C#N)c[nH]2)CC1 [Example 41, 4-Cyano-1H-imidazole-2-carboxylic acid [2-(4-methyl-piperidin-1-yl)-phenyl]-amide trifluoroacetic acid salt] | – | – | IC50 [2]: < 1000 nM
26 | CC1(C)CC=C(c2ncccc2NC(=O)c2nc(C#N)c[nH]2)CC1 [Example 42, 4-Cyano-1H-imidazole-2-carboxylic acid [2-(4,4-dimethyl-cyclohex-1-enyl)-pyridin-3-yl]-amide trifluoroacetic acid salt] | – | – | IC50 [2]: < 1000 nM
27 | CC1(C)CCN(c2ncccc2NC(=O)c2nc(C#N)c[nH]2)CC1 [Example 63, 4-Cyano-1H-imidazole-2-carboxylic acid (4,4-dimethyl-3,4,5,6-tetrahydro-2H-[1,2′]bipyridinyl-3′-yl)-amide trifluoroacetic acid salt] | – | – | IC50 [2]: < 1000 nM
28 | CC1(C)CC=C(c2ccccc2NC(=O)c2nc(C#N)c[nH]2)CC1 [Example 67, 4-Cyano-1H-imidazole-2-carboxylic acid [2-(4,4-dimethyl-cyclohex-1-enyl)-phenyl]-amide] | – | – | IC50 [2]: < 1000 nM

Continued, in another order:

Row | IC50 [1] [nM] | inhibition at 10 µM (at 10 μM compound) [%] | SMILES | other results
29 | < 1000 | 100 | O=C(Nc1ccccc1N1CCC(CCO)CC1)c1ccc([N+](=O)[O-])o1 | –
30 | < 1000 | 97 | CC1CCN(c2ccccc2NC(=O)c2ccc(C#N)o2)CC1 | –
31 | < 1000 | 99 | N#Cc1ccc(C(=O)Nc2ccccc2N2CCCCC2)o1 | –
32 | < 1000 | 100 | O=C(Nc1ccccc1N1CCC(CO)CC1)c1ccc([N+](=O)[O-])o1 | –
33 | < 1000 | 98 | O=C(Nc1ccccc1N1CCC(O)CC1)c1ccc([N+](=O)[O-])o1 | –
34 | > 1000 | 50 | Cc1cccc(N2CCCCC2)c1NC(=O)c1ccc(C#N)o1 | –
35 | > 1000 | 89 | O=C(Nc1ccccc1N1CCOCC1)c1ccc([N+](=O)[O-])o1 | –
36 | > 1000 | 88 | O=C(Nc1ccccc1N1CCCCC1)c1ccc(Cl)o1 | –
37 | > 1000 | 68 | O=C(Nc1ccccc1N1CCCCC1)c1ccc(Br)o1 | –
38 | > 1000 | 24 | O=C(O)c1ccc(C(=O)Nc2ccccc2N2CCCCC2)o1 | –
39 | > 1000 | 86 | O=Cc1ccc(C(=O)Nc2ccccc2N2CCCCC2)o1 | –
40 | > 1000 | – | N#Cc1ccc(C(=O)Nc2ccccc2N2CCC(O)CC2)o1 | inhibition at 2 µM: 90%
41 | < 1000 | – | N#Cc1ccc(C(=O)Nc2ccccc2N2CCC(CCO)CC2)o1 | inhibition at 2 µM: 97%
42 | < 1000 | – | N#Cc1ccc(C(=O)Nc2ccc(Cl)cc2N2CCCCC2)o1 | inhibition at 2 µM: 90%
43 | < 1000 | – | N#Cc1ccc(C(=O)Nc2ccc(F)cc2N2CCCCC2)o1 | inhibition at 2 µM: 94%
44 | < 1000 | – | N#Cc1ccc(C(=O)Nc2ccccc2N2CCC(CO)CC2)o1 | inhibition at 2 µM: 93%
